The text below walks through data of article PMC3282081, “A Modular Strategy to Prepare Multivalent Inhibitors of Prostate-Specific Membrane Antigen (PSMA)” (Oncotarget, 2011).

For test [1], the target named is T1, PSMA (Homo sapiens, UniProt Q04609).
T1 construct: endogenous in cells; host or cells: LNCaP cell lysate
The test is described as follows: fluorescence-based PSMA inhibition assay (NAAG hydrolysis, Amplex Red). The class given is biochemical. As to conditions: for Ki: LNCaP cell lysates, 4 μM NAAG, Cheng-Prusoff conversion; for increase in binding affinity (Ki) compared to monovalent 1: relative to compound 1. As to the method:
PSMA inhibition constant (Ki) values for 1 - 3 were determined using a fluorescence-based PSMA inhibition assay. […] Compound 6 was radiolabeled with ^99mTc and its biological properties were tested in vivo [34].
The PSMA inhibitory activities of 1 - 3 and [^113/115In]3 were determined using a fluorescence-based assay according to a previously reported procedure. Briefly, lysates of LNCaP cell extracts (25 μL) were incubated with the inhibitor (12.5 μL) in the presence of 4 μM NAAG (12.5 μL) for 120 min. The amount of glutamate released upon hydrolysis of NAAG was measured by incubating with a working solution (50 μL) of the Amplex Red Glutamic Acid Kit (Life Technologies, Grand Island, NY) for 60 min. Fluorescence was measured with a VICTOR3V multilabel plate reader (Perkin Elmer Inc., Waltham, MA) with excitation at 530 nm and emission at 560 nm. […] Assays were performed in triplicate. Enzyme inhibitory constants (Ki values) were generated using the Cheng-Prusoff conversion. Data analysis was performed using GraphPad Prism version 4.00 for Windows (GraphPad Software, San Diego, CA).

Test [2] addresses T1, PSMA. Details: method as in earlier work. As to conditions: separate previous experiment; cited from earlier work.

Where “and” joins values, the source holds several entries; their conditions need not be identical. Equal values may be shown once. Read-outs that look alike come from different tables or passages of the source.

T1 sequence (Q04609 whole entry): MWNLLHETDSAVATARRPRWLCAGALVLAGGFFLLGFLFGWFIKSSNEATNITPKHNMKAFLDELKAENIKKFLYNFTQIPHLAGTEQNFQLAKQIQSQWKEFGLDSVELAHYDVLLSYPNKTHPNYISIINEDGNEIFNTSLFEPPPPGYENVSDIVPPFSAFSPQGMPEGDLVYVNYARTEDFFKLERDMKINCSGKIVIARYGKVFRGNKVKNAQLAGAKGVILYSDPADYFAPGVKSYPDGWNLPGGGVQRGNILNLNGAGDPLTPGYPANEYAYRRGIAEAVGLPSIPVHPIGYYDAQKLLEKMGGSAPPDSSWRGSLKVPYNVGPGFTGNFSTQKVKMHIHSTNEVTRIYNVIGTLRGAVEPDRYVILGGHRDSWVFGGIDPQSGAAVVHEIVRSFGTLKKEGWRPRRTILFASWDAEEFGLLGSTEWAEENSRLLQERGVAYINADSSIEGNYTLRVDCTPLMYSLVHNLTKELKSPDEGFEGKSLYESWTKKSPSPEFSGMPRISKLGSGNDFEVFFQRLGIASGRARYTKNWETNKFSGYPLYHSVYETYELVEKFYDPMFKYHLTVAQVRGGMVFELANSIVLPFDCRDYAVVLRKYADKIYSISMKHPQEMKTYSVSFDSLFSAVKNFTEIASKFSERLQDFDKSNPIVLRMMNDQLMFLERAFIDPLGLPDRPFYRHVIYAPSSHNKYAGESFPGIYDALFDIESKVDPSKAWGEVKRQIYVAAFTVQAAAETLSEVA

Broadly, the Ki is a measure of affinity in units of concentration, obtained from inhibition or displacement. For `[N-]=[N+]=NCCCCC(NC(=O)CCCCCCC(=O)NCCCC[C@H](NC(=O)N[C@@H](CCC(=O)O)C(=O)O)C(=O)O)C(=O)O` (stereo partly drawn) [Compound 1, (3S,7S)-26-Azido-5,13,20-trioxo-4,6,12,21-tetraazahexacosane-1,3,7,22-tetracarboxylic acid], at PSMA [1], the Ki was 0.9 nM and 0.91 nM.

For `NC(Cc1cn(CCCCC(NC(=O)CCCCCCC(=O)NCCCC[C@H](NC(=O)N[C@@H](CCC(=O)O)C(=O)O)C(=O)O)C(=O)O)nn1)C(=O)O` (stereo partly drawn) [Compound 6], on PSMA [2], the Ki was 0.92 nM.

Take `NCCCCC(NC(=O)C(CCCCNC(=O)c1cn(CCCCC(NC(=O)CCCCCCC(=O)NCCCC[C@H](NC(=O)N[C@@H](CCC(=O)O)C(=O)O)C(=O)O)C(=O)O)nn1)NC(=O)c1cn(CCCCC(NC(=O)CCCCCCC(=O)NCCCC[C@H](NC(=O)N[C@@H](CCC(=O)O)C(=O)O)C(=O)O)C(=O)O)nn1)C(=O)O` (stereo partly drawn) [Compound 2]: on PSMA [1], the affinity, expressed as Ki, was 0.1 nM; the “increase in binding affinity (Ki) compared to monovalent 1” value was 5 fold and ~ 5 fold.

As to `O=C(O)CC[C@H](NC(=O)N[C@@H](CCCCNC(=O)CCCCCCC(=O)NC(CCCCn1cc(C(=O)NCCCCC(NC(=O)c2cn(CCCCC(NC(=O)CCCCCCC(=O)NCCCC[C@H](NC(=O)N[C@@H](CCC(=O)O)C(=O)O)C(=O)O)C(=O)O)nn2)C(=O)NC(CCCCNC(=O)CN2CCN(CC(=O)O)CCN(CC(=O)O)CCN(CC(=O)O)CC2)C(=O)O)nn1)C(=O)O)C(=O)O)C(=O)O` (stereo partly drawn) [Compound 3], on PSMA [1], the affinity corresponds to a Ki of 0.08 nM; the “increase in binding affinity (Ki) compared to monovalent 1” value is 11 fold and ~ 11 fold.
